These results are taken from ChEMBL document CHEMBL4414565, “Furanocoumarins from the Roots of Angelica dahurica with Inhibitory Activity against Intracellular Reactive Oxygen Species Accumulation” (J Nat Prod, 2019).

In data set [1] the test system is HepG2. Put plainly: Cytotoxicity against human HepG2 cells assessed as cell viability at 10 uM incubated for 1 hr by EZ-Cytox cell viability assay. In kind it is cell-based. To be noted: hepg2, 1 h.
Data set [2] concerns HepG2. Put plainly: Hepatoprotective activity against H2O2-induced cell death in human HepG2 cells assessed as cell viability at 10 uM preincubated for 1 hr followed by H2O2-stimulation and measured after 24 hrs by EZ-Cytox cell viability assay (reference value: 43.9 +/- 5.25%). In kind it is functional. To be noted: read-out: Activity.
For data set [3], the system named is HepG2. Put plainly: Inhibition of H2O2-induced ROS accumulation in human HepG2 cells assessed as ROS generation at 10 uM preincubated for 1 hr followed by H2O2-stimulation and measured after 30 mins by H2DCFDA staining based flow cytometry (reference value: 100 +/- 11.53%). In kind it is functional. Further details: scale not given: the % may be the effect or the level left. (In flow cytometry, cells or beads pass a laser one at a time.)

The subject of data set [4] is HepG2. Put plainly: Hepatoprotective activity against H2O2-induced cell death in human HepG2 cells assessed as cell viability at 50 uM preincubated for 1 hr followed by H2O2-stimulation and measured after 24 hrs by EZ-Cytox cell viability assay (reference value: 43.9 +/- 5.25%). It is filed as functional. To be noted: read-out: Activity.
Data set [5] deals with HepG2. Put plainly: Inhibition of H2O2-induced ROS accumulation in human HepG2 cells at 50 uM assessed as ROS generation preincubated for 1 hr followed by H2O2-stimulation and measured after 30 mins by H2DCFDA staining based flow cytometry (reference value: 100 +/- 11.53%). In kind it is functional. The arrangement: scale not given: the % may be the effect or the level left.

Regarding `C/C=C/c1cc(OC)c(OC)c(OC)c1`, the Activity entry with HepG2 [1] is “Non-Toxic”; in the data set with HepG2 [3] it was 75.8%. In addition, in the data set on HepG2 [2], the viability at 10 µM worked out at 62.2%.
The corresponding values for `COc1c2ccoc2c(OC[C@@H](O)C(C)(C)OC)c2oc(=O)ccc12` are “Non-Toxic”, 52% and 40.4%.
The corresponding values for `CC1(C)O[C@@H]1COc1c2ccoc2cc2oc(=O)ccc12` are “Non-Toxic”, 103.9% and 59.3%.
On to `COc1c2ccoc2c(O)c2oc(=O)ccc12`, for which the Activity entry in the data set on HepG2 [1] is on record as “Non-Toxic”; with HepG2 [3] it was 38.1%. Moreover, in the data set on HepG2 [2], the viability at 10 µM amounted to 34.6%.
The corresponding values for `COc1c2c(c(OCC=C(C)C)c3occc13)O[C@]1(C=C2)O[C@H](COc2c3ccoc3cc3oc(=O)ccc23)C(C)(C)O1` are “Non-Toxic”, 79.9% and 64.1%.
As for `COc1c2ccoc2c(OC/C=C(/C)COC(=O)CC(C)C)c2oc(=O)ccc12`, the results for the Activity result with HepG2 [1] and in the data set on HepG2 [3] were “Non-Toxic” and 90.1%, respectively. For the same compound, the viability at 10 µM in the data set on HepG2 [2] was 58.5%.
Turning to `CC(C)=CCOc1c2occc2c(OC[C@@H](O)C(C)(C)O)c2ccc(=O)oc12`, the Activity result is recorded as “Non-Toxic” in the data set with HepG2 [1] and 78% in the data set on HepG2 [3]. In addition, the viability at 10 µM in the data set with HepG2 [2] worked out at 51%.
Take `CC(C)=CCOc1c2occc2c(OC[C@H]2OC2(C)C)c2ccc(=O)oc12`: the Activity result was “Non-Toxic” in the data set with HepG2 [1] and 65.5% in the data set on HepG2 [3]. In addition, the viability at 10 µM in the data set with HepG2 [2] was 56.2%.
As to `C=C(C)[C@H](O)COc1c2ccoc2c(OCC=C(C)C)c2oc(=O)ccc12`, the Activity entry with HepG2 [1] is given as “Non-Toxic”; in the data set with HepG2 [3] it was 63.9%. Moreover, the viability at 10 µM in the data set with HepG2 [2] came out at 50.9%.
`COc1c2c(c(OCC=C(C)C)c3occc13)O[C@@]1(C=C2)O[C@H](COc2c3ccoc3cc3oc(=O)ccc23)C(C)(C)O1`: the values for the Activity result with HepG2 [1] and in the data set with HepG2 [3] were “Non-Toxic” and 100%, respectively. In addition, in the data set on HepG2 [2], the viability at 10 µM stood at 63%.
The corresponding values for `CC(C)=CCOc1c2ccoc2c(OCC(O)C(C)(C)O)c2oc(=O)ccc12` (single isomer, unassigned; (-)) are “Non-Toxic”, 85.3% and 61.1%.
The corresponding values for `COc1c2ccoc2cc2oc(=O)ccc12` [BERGAPTEN] are “Non-Toxic”, 92.7% and 60.3%.
The corresponding values for `COc1c2ccoc2c(OC[C@@H](O)C(C)(C)O)c2oc(=O)ccc12` [BYAKANGELICIN] are “Non-Toxic”, 57.9% and 46.5%.
With `CC(C)=CCOc1c2ccoc2cc2oc(=O)ccc12` [ISOIMPERATORIN], the Activity entry in the data set with HepG2 [1] is recorded as “Non-Toxic”; with HepG2 [3], 71.1%. In the data set with HepG2 [2], the viability at 10 µM turned out to be 67%.
The corresponding values for `COc1c2occc2c(OCC=C(C)C)c2ccc(=O)oc12` [KINIDILIN] are “Non-Toxic”, 51.3% and 60.5%.
The corresponding values for `COc1c2occc2cc2ccc(=O)oc12` [METHOXSALEN] are “Non-Toxic”, 77% and 56.5%.
As to `CC(C)(O)[C@H](O)COc1c2ccoc2cc2oc(=O)ccc12` [OXYPEUCEDANIN HYDRATE], the Activity result in the data set on HepG2 [1] is recorded as “Non-Toxic”; with HepG2 [3], 92.8%. Also, the viability at 10 µM in the data set with HepG2 [2] was 47.5%.
For `CC(C)=CCOc1c2occc2cc2ccc(=O)oc12` [PENTOSALEN], the Activity entry is recorded as “Non-Toxic” in the data set on HepG2 [1] and 77.1% in the data set with HepG2 [3]. Besides, the viability at 10 µM in the data set with HepG2 [2] amounted to 71.5%.
The corresponding values for `COc1c2ccoc2c(OCC=C(C)C)c2oc(=O)ccc12` [PHELLOPTERIN] are “Non-Toxic”, 58.3% and 57.6%.
The corresponding values for `O=c1ccc2cc3ccoc3cc2o1` [PSORALEN] are “Non-Toxic”, 101.4% and 55.5%.
With `O=C(/C=C/c1ccc(O)c(O)c1)O[C@H](Cc1ccc(O)c(O)c1)C(=O)O` [ROSMARINIC ACID], in the data set on HepG2 [4], the viability at 50 µM worked out at 65.3%. The Activity in the data set on HepG2 [5] was 49.3%.
